Calls of active or inactive are those of the source.
Key:
[1] = target: Mitogen-activated protein kinase 1 (Homo sapiens, UniProt P28482)
[2] = target: T1, STE20-related kinase adapter protein alpha (Homo sapiens, UniProt Q7RTN6)
T1 sequence (Q7RTN6 whole entry): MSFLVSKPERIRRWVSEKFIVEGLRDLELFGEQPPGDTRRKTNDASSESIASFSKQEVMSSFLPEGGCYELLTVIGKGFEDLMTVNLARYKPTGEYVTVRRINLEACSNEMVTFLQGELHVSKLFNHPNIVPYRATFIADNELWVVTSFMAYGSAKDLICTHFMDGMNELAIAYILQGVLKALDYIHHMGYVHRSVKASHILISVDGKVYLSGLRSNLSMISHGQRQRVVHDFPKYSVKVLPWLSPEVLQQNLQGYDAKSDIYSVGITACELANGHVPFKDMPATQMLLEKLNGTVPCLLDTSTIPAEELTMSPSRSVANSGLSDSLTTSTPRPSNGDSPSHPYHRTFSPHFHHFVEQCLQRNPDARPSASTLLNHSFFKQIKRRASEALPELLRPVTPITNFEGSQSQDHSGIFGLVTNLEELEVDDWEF

[3] = target: T2, Structural maintenance of chromosomes protein 1A (Homo sapiens, UniProt Q14683)
T2 sequence (Q14683 whole entry): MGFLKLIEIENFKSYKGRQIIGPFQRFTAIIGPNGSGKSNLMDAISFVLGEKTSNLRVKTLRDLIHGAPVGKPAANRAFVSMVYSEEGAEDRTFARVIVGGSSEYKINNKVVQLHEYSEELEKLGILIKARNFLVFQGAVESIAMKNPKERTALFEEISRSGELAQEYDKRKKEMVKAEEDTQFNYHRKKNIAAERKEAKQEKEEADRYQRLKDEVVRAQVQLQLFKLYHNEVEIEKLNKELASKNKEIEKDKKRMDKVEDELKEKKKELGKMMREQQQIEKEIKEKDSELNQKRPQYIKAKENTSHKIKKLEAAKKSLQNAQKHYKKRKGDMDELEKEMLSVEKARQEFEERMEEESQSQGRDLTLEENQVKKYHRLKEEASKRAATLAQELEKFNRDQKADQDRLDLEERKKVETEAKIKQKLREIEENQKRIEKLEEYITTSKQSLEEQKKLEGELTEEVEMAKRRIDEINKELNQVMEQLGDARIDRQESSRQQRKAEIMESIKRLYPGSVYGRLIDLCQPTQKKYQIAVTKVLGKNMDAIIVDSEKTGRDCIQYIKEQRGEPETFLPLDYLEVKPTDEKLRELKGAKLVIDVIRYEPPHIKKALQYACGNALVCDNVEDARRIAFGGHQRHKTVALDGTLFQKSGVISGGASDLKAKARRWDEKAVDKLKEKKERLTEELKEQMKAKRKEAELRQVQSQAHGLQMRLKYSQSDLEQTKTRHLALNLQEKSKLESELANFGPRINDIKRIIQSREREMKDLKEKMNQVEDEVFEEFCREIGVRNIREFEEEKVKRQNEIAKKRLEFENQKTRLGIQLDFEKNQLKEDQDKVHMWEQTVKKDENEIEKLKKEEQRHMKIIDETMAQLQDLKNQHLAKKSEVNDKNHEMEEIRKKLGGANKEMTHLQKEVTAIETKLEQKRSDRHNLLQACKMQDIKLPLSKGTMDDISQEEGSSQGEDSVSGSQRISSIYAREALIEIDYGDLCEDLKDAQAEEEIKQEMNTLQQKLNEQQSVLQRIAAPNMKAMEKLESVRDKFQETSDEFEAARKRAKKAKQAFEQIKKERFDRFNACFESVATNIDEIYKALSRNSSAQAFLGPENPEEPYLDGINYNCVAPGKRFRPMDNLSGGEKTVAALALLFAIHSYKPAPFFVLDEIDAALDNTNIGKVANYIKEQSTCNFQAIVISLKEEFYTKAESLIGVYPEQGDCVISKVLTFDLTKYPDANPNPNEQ

[4] = target: T3, Serine/threonine-protein kinase TAO3 (Homo sapiens, UniProt Q9H2K8)
T3 sequence (Q9H2K8 whole entry): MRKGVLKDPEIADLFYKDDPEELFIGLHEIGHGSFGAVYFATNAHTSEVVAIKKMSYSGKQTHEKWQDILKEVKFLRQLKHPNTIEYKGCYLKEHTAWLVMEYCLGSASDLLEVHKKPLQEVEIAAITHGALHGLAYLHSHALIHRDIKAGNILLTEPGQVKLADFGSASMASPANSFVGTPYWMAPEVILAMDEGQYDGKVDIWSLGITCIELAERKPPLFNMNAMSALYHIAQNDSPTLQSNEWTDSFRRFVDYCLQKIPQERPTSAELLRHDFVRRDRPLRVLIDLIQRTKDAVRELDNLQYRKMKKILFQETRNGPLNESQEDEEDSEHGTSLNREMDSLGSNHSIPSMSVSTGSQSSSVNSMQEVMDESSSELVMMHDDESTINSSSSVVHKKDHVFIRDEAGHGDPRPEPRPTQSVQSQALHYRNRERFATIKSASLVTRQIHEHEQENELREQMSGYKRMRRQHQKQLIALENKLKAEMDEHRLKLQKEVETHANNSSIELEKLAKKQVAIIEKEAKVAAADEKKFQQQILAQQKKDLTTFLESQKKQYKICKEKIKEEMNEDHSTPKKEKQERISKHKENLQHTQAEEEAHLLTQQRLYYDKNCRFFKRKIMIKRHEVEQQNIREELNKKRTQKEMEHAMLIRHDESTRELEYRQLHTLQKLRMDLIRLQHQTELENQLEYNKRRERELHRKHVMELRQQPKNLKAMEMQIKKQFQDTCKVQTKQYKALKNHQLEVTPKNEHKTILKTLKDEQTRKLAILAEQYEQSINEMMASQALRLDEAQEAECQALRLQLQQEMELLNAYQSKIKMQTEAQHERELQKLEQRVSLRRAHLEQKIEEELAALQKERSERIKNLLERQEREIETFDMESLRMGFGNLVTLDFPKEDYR

[5] = target: T4, Serine/threonine-protein kinase STK11 (Homo sapiens, UniProt Q15831)
T4 sequence (Q15831 whole entry): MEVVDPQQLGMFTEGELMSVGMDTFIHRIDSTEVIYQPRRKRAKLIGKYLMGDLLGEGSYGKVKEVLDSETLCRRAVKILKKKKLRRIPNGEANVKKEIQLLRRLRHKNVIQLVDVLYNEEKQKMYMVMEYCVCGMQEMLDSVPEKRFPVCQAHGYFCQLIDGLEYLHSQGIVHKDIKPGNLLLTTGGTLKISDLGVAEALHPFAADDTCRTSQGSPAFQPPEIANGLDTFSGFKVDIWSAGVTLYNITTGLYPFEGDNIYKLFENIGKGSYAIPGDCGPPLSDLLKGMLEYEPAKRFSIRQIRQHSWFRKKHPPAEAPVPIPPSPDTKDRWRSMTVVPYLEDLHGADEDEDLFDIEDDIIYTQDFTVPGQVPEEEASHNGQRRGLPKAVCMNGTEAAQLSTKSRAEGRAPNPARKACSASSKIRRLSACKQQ
Further: in the data inactive means no Kd found up to 30 µM.

Sequence of Mitogen-activated protein kinase 1 (P28482 whole entry): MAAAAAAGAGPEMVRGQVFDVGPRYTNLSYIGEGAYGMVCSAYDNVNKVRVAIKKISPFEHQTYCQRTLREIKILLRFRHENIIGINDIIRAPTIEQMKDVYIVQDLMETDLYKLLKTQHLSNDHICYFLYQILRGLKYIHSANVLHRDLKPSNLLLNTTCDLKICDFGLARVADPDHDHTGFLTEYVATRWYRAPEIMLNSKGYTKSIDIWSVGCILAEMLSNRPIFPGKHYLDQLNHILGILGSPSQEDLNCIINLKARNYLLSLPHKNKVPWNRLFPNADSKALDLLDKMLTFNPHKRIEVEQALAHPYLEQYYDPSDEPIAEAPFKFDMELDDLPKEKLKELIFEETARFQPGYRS

Structure (SMILES) | Kd [1] | Kd [2] | Kd [3] | Kd [4] | Kd [5]
Cc1cc(Nc2nc(N[C@@H](C)c3ncc(F)cn3)ncc2Cl)n[nH]1 [AZD-1480] | > 30 µM (inactive) | 0.316 µM | > 30 µM (inactive) | > 30 µM (inactive) | 0.714 µM
CCN(CCCOc1ccc2c(Nc3cc(CC(=O)Nc4cccc(F)c4)n[nH]3)ncnc2c1)CCOP(=O)(O)O [BARASERTIB] | > 30 µM (inactive) | > 30 µM (inactive) | > 30 µM (inactive) | > 30 µM (inactive) | > 30 µM (inactive)
COc1cccc(Nc2ncnn3ccc(CN4CC[C@@H](N)[C@H](O)C4)c23)c1 [BMS-690514] | > 30 µM (inactive) | > 30 µM (inactive) | > 30 µM (inactive) | > 30 µM (inactive) | > 30 µM (inactive)
COc1cc2nccc(Oc3ccc(NC(=O)C4(C(=O)Nc5ccc(F)cc5)CC4)cc3)c2cc1OC [CABOZANTINIB] | > 30 µM (inactive) | > 30 µM (inactive) | > 30 µM (inactive) | > 30 µM (inactive) | > 30 µM (inactive)
CC1(COc2ccc3c(c2)ncn3-c2ccc3cccc(N4CCC(N)CC4)c3n2)COC1 [CRENOLANIB] | > 30 µM (inactive) | > 30 µM (inactive) | > 30 µM (inactive) | > 30 µM (inactive) | > 30 µM (inactive)
Cn1c(=O)n(-c2ccc(C(C)(C)C#N)cc2)c2c3cc(-c4cnc5ccccc5c4)ccc3ncc21 [DACTOLISIB] | > 30 µM (inactive) | > 30 µM (inactive) | > 30 µM (inactive) | > 30 µM (inactive) | > 30 µM (inactive)
CC[C@@](C)(Nc1ccnc(-c2c[nH]c3ncccc23)n1)C(=O)NCC(F)(F)F [DECERNOTINIB] | > 30 µM (inactive) | > 30 µM (inactive) | > 30 µM (inactive) | 7.87 µM (active) | > 30 µM (inactive)
CNC(=O)c1ccc(Nc2ncc(C(F)(F)F)c(NCc3nccnc3N(C)S(C)(=O)=O)n2)cc1 [DEFACTINIB] | > 30 µM (inactive) | > 30 µM (inactive) | > 30 µM (inactive) | 10.8 µM (active) | > 30 µM (inactive)
COc1cc(Nc2ncc(F)c(Nc3ccc4c(n3)N(COP(=O)(O)O)C(=O)C(C)(C)O4)n2)cc(OC)c1OC [FOSTAMATINIB] | > 30 µM (inactive) | > 30 µM (inactive) | > 30 µM (inactive) | > 30 µM (inactive) | > 30 µM (inactive)
CCc1nc(C(N)=O)c(Nc2ccc(N3CCC(N4CCN(C)CC4)CC3)c(OC)c2)nc1NC1CCOCC1 [GILTERITINIB] | > 30 µM (inactive) | > 30 µM (inactive) | > 30 µM (inactive) | > 30 µM (inactive) | > 30 µM (inactive)
Cc1c(Cn2c(C)nc3c(C(=O)O)cc(N4CCOCC4)cc32)cccc1C(F)(F)F [GSK-2636771] | > 30 µM (inactive) | > 30 µM (inactive) | > 30 µM (inactive) | > 30 µM (inactive) | > 30 µM (inactive)
C=CC(=O)Nc1cc(Nc2nccc(-c3cn(C)c4ccccc34)n2)c(OC)cc1N(C)CCN(C)C [OSIMERTINIB] | > 30 µM (inactive) | > 30 µM (inactive) | > 30 µM (inactive) | > 30 µM (inactive) | > 30 µM (inactive)
CN(c1ncccc1CNc1nc(Nc2ccc3c(c2)CC(=O)N3)ncc1C(F)(F)F)S(C)(=O)=O [PF-00562271] | 1.24 µM (active) | > 30 µM (inactive) | > 30 µM (inactive) | 11.9 µM (active) | 0.626 µM (active)

More lines, now with the values ahead:

Kd [1] | Kd [2] | Kd [3] | Kd [4] | Kd [5] | Structure (SMILES)
> 30 µM (inactive) | > 30 µM (inactive) | > 30 µM (inactive) | > 30 µM (inactive) | > 30 µM (inactive) | C#Cc1cccc(Nc2ncnc3cc4c(cc23)OCCOCCOCCO4)c1 [ICOTINIB]
> 30 µM (inactive) | > 30 µM (inactive) | > 30 µM (inactive) | > 30 µM (inactive) | > 30 µM (inactive) | COc1cc2ncnc3c2cc1OCCCCCN(C)Cc1ccc(Br)cc1N3 [JNJ-26483327]
> 30 µM (inactive) | > 30 µM (inactive) | > 30 µM (inactive) | > 30 µM (inactive) | > 30 µM (inactive) | Cc1ccc(C(=O)Nc2ccc(Oc3cc4cnn(C)c4cc3-c3cn[nH]c3)c(F)c2)c(=O)n1-c1ccc(F)cc1 [MERESTINIB]
> 30 µM (inactive) | > 30 µM (inactive) | > 30 µM (inactive) | > 30 µM (inactive) | > 30 µM (inactive) | O=C(NOC[C@H](O)CO)c1ccc(F)c(F)c1Nc1ccc(I)cc1F [MIRDAMETINIB]
> 30 µM (inactive) | > 30 µM (inactive) | > 30 µM (inactive) | > 30 µM (inactive) | > 30 µM (inactive) | COc1cccc2cc(-c3nc([C@H]4CC[C@H](C(=O)O)CC4)n4ncnc(N)c34)[nH]c12 [OSI-027]
> 30 µM (inactive) | > 30 µM (inactive) | > 30 µM (inactive) | > 30 µM (inactive) | > 30 µM (inactive) | O=C(Nc1ccc(OC(F)(F)F)cc1)c1sccc1NCc1ccnc2ccccc12 [OSI-930]
> 30 µM (inactive) | > 30 µM (inactive) | > 30 µM (inactive) | > 30 µM (inactive) | > 30 µM (inactive) | FC(F)(F)c1ccc(CNc2ccc(Cc3c[nH]c4ncc(Cl)cc34)cn2)cn1 [PEXIDARTINIB]
> 30 µM (inactive) | > 30 µM (inactive) | > 30 µM (inactive) | > 30 µM (inactive) | > 30 µM (inactive) | O=C(NC[C@H](O)CO)c1ccncc1Nc1ccc(I)cc1F [PIMASERTIB]
